Measurements from patent US9675712B2, “pH sensitive fluorescent polydiacetylene liposome and delivery vehicle comprising same” (priority 2012, dated 2017).

Test system: E. coli 0-157(ATCC 43894)
Assay: Anti-bacterial analysis of drug release in vitro (plaque / growth inhibition area on agar plate)
Type: cell-based
Settings: dish (c): standard solution in PBS; 20 μl, 37° C. overnight
Method: In order to prepare an LB broth and an agar medium, 12.5 g of the LB broth and 7.5 g of the plant agar were transferred to 1 L sterile flask. The components were dissolved in 500 mL of distilled water or deionized water, and flask was tightly covered with an aluminum foil, a plug or a cap similar thereto. The mixture was heated until a boiling point was reached to dissolve the agar, and sterilized by autoclave at 121-124° C. for 15 mins, and then waited until the autoclave was cooled and a pressure was 0. The medium was removed from the autoclave and cooled to room temperature. When the LB agar was cooled to a temperature (approximately 45° C.) which is still considered hot by touch, 0.5 cm or ¼ layer of agar was poured into the Petri dish. It corresponds to approximately 20 to 25 mL volumes of the agar. The Petri dish was positioned on a flat surface until the agar was completely solidified for 30 to 40 mins. The Petri dish containing the solid agar was stored at 4° C.
300 μl of bacteria (E. coli) was added to 3.0 mL of the LB broth, and the culture fluid was strongly shaken. Then, the culture fluid was cultured in an incubator shaking the bacteria at 37° C. overnight. […]
First, a growth inhibition area (plaque) will be shown in the fusible bacterial habitat in the case in which the drug is smoothly released from the liposome. […] Third, the analysis method needs to be quantitative.

**Q.** `CC1(C)S[C@@H]2[C@H](NC(=O)[C@H](N)c3ccccc3)C(=O)N2[C@H]1C(=O)O` [ampicillin standard solution, ampicillin] was tested. Which growth inhibition area did it give?
**A.** growth inhibition area was generally observed
